Measurements: US6897237B2, “MMP-12 inhibitors” (Shionogi & Co. Ltd., priority 2000, dated 2005)

Columns and labels:
[1] = target: T1, MMP-1 (Homo sapiens, UniProt P03956); assay: Assay for inhibitory activities on MMPs (fluorogenic peptide substrate): MMP-1; format: biochemical; conditions: substrate MOCAc-Pro-Leu-Gly-Leu-A2Pr(DNP)-Ala-Arg-NH2
T1 construct: purchased Yagai
T1 sequence (P03956 100-469): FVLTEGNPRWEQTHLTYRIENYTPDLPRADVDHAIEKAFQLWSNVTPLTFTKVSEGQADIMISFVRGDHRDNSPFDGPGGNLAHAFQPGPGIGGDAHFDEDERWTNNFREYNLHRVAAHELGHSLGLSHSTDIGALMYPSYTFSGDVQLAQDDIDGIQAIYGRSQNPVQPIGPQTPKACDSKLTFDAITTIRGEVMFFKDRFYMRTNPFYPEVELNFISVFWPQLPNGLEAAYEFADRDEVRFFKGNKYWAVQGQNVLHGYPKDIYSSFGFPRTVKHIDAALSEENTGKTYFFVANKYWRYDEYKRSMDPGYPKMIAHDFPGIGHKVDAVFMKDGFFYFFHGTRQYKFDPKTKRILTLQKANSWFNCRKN
Experimental: MMP-1 was purchased from Yagai.
(§1) The enzymatic activity on MMPs was analyzed by the method described in “C. Graham Knight, Frances Willenbrock and Gillian Murphy: A novel coumarin-labelled peptide for sensitive continuous assays of the matrix metalloproteinases: FEBS LETT., 296, (1992), 263-266”. The substrate: MOCAc-Pro-Leu-Gly-Leu-A2Pr(DNP)-Ala-Arg-NH2 was purchased from Peptide Institute, Inc., Osaka, Japan. The measurement of the inhibitory activities (IC50) was carried out by the following four methods;
(§2) (A) Reaction with substrate, enzyme (MMPs) and inhibitor
(§3) (B) Reaction with substrate and inhibitor, without enzyme
(§4) (C) Reaction with substrate and enzyme (MMPs), without inhibitor
(§5) (D) Reaction with substrate only
(§6) IC50 values were calculated by using the following formula and each fluorescence values of above four methods (A to D).
(§7) % inhibition={1−(A−B)/(C−D)}×100
(§8) IC50 means the concentration required to inhibit 50% of the enzyme activity.

[2] = target: T2, MMP-9 (Homo sapiens, UniProt P14780); assay: Assay for inhibitory activities on MMPs (fluorogenic peptide substrate): MMP-9; format: biochemical; conditions: substrate MOCAc-Pro-Leu-Gly-Leu-A2Pr(DNP)-Ala-Arg-NH2
T2 construct: endogenous in cells; host or cells: HT1080 human fibrosarcoma cells, TPA-stimulated; purified in house from conditioned medium
T2 sequence (P14780 107-707 limits assumed): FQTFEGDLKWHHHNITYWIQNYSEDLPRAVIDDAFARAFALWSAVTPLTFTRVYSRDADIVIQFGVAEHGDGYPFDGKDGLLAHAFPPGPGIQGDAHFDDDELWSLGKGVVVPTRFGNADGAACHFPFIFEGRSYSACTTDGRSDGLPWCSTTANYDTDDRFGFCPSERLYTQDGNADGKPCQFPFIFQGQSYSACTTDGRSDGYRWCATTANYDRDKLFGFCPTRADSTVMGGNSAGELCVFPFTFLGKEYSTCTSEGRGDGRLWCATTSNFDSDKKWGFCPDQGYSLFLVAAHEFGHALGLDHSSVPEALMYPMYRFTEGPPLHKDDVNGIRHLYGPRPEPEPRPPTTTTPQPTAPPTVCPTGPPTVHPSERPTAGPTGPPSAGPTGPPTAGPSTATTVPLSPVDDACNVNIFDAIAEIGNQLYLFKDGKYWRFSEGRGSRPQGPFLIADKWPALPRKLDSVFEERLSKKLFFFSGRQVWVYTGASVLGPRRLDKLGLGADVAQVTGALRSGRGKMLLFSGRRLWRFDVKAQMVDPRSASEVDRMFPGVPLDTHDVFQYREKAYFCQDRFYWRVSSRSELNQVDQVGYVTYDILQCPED
From the text: MMP-9 was isolated and purified by using a combination of procedures described in previous reports as follows. Yasunori Okada, Yukio Gonoji, Katsumi Naka, Katsuro Tomita, Isao Nakanishi, Kazushi Iwata, Kyoko Yamashita, and Taro Hayakawa: Matrix metalloproteinase 9 (92-kDa gelatinase/type IV collagenase) from HT1080 human fibrosarcoma cells. Purification and activation of the precursor and enzymic properties. J. Biol. Chem., 267 (1.992) 21712-21719. Yasunori Okada, Tatsuhisa Morodomi, Jan J, Enghild, Ko Suzuki, Atsushi Yasui, Isao Nakanishi, Guy Salvesen and Hideaki Nagase: Matrix metalloproteinase 2 from human rheumatoid synovial fibroblasts. Purification and activation of the precursor and enzymic properties. Eur. J. Biochem. 194 (1990) 721-730. Robin V Ward, Rosalind M Hembry, John J Reynolds and Gillian Murphy: The purification of tissue inhibitor of metalloproteinase-2 from its 72 kDa progelatinase complex. Biochem. J. 278 (1991) 179-187.
Briefly, human fibrosarcoma ATCC HT1080 cell line was cultured to confluent in Dulbecco's Modified Medium (DMEM) containing 10% fetal-calf serum at 37° C. for 48 hours. Subsequently, the medium of confluent culture was changed to serum-free DMEM medium. To obtain MMP-9, Phorbol-12-myristate-13-acetate (TPA) must be added to this serum-free DMEM medium at a concentration of 50 ng/ml. The TPA treated medium was centrifuged at 3000 rpm for 15 min and the supernatant was concentrated to 450 ml by a Toyo-Roshi UP-20 apparatus with an ultrafiltration membrane. Then, proMMP-9 in this concentrated solution was purified by using columns of Gelatin-Sepharose and Concanavalin A-Sepharose. The pool containing proMMP-9 was dialyzed, concentrated (Toyo-Roshi UP-20) and applied to columns of Sephacryl S-200 and Green A matrix for the separation from TIMPs. The obtained proMMP-9 fraction was activated by TPCK-Trypsin (final conc. […] reaction mix.).
as §1, §2, §3, §4, §5, §6, §7, §8

[3] = target: T3, MMP-13 catalytic domain (Homo sapiens, UniProt P45452); assay: Assay for inhibitory activities on MMPs (fluorogenic peptide substrate): MMP-13; format: biochemical; conditions: substrate MOCAc-Pro-Leu-Gly-Leu-A2Pr(DNP)-Ala-Arg-NH2
T3 construct: catalytic domain (^104Tyr˜^267Gly); His-tag; enterokinase digestion-site; made in house; host or cells: Escherichia coli
Experimental: (§9) In regard to MMP-13, mRNA was prepared from carcinoma cell SW1353 derived from human cartilage stimulate by IL-1, TNF and catalytic domain (^104Tyr˜^267Gly) was amplified with RT-PCR. This was cloned in Escherichia coli expression vector pTrc99AHE inserted with His-tag sequence and enterokinase digestion-site, induced and expressed by IPTG (Isopropyl-β-D-thiogalactopyranoside) and expressed in a insoluble fraction. Isolation of MMP-1.3 from a insoluble fraction was carried out by dissolving in modifier (6M urea) by a usual method and purification with metal chelate chromatography (Ni Chelateing Sepharose). And then removing modifier (6M urea) with dialyze and refolding of the enzyme spontaneously gave activated MMP-13.
as §1, §2, §3, §4, §5, §6, §7, §8

[4] = target: T4, MMP-2 (Homo sapiens, UniProt P08253); assay: Assay for inhibitory activities on MMPs (fluorogenic peptide substrate): MMP-2; format: biochemical; conditions: substrate MOCAc-Pro-Leu-Gly-Leu-A2Pr(DNP)-Ala-Arg-NH2
T4 construct: purchased Calbiochem-Novabiochem International, Inc
T4 sequence (P08253 110-660): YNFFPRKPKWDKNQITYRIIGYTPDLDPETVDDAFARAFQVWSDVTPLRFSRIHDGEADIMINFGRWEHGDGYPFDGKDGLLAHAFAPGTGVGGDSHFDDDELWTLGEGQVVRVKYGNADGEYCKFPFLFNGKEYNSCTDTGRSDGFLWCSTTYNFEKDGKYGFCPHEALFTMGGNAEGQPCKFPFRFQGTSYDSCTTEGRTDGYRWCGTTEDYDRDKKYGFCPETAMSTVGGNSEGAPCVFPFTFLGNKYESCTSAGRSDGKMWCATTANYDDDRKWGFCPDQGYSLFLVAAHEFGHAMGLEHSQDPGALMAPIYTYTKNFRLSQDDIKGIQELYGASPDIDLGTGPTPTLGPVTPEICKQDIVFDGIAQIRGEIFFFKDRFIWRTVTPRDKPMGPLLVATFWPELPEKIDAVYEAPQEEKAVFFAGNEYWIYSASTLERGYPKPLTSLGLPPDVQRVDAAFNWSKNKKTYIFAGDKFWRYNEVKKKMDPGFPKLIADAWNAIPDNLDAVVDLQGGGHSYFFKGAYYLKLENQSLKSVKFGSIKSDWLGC
Experimental: MMP-2 was purchased from Calbiochem-Novabiochem International, Inc.
as §1, §2, §3, §4, §5, §6, §7, §8

[5] = target: T5, MMP-8 catalytic domain (Homo sapiens, UniProt P22894); assay: Assay for inhibitory activities on MMPs (fluorogenic peptide substrate): MMP-8; format: biochemical; conditions: substrate MOCAc-Pro-Leu-Gly-Leu-A2Pr(DNP)-Ala-Arg-NH2
T5 construct: catalytic domain (^99Phe˜^262Gly); His-tag; enterokinase digestion-site; made in house; host or cells: Escherichia coli
T5 sequence (P22894 99-262): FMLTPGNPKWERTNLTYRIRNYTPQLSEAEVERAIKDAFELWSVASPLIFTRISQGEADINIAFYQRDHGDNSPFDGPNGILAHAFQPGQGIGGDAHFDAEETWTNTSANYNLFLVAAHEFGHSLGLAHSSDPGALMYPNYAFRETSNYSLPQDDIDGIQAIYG
From the text: In regard to MMP-8, catalytic domain (^99Phe˜^262Gly) was amplified with PCR using commercial available Human Bone Marrow cDNA. This was cloned in Escherichia. coli expression vector pTrc99AHE inserted with His-tag sequence and enterokinase digestion-site, induced and expressed by IPTG (Isopropyl-β-D-thiogalactopyranoside) and expressed in a insoluble fraction (Than F. Ho, M. Walid Qoronfleh, Robert C. Wahl, Trica A. Pulvino, Karen J. Vavra, Joe Falvo, Tracey M. Banks, Patricia G. Brake and Richard B. Ciccarelli: Gene expression, purification and characterization of recombinant human neutrophil collagenase. Gene 146, (1994) 297-301, Prepared by the a improved method of this material). Isolation of MMP-8 from insoluble fraction was carried out by dissolving in modifier (6M urea) by a usual method and purification with metal chelate chromatography. And then removing modifier (6M urea) with dialysis and refolding of the enzyme spontaneously gave activated MMP-8.
as §1, §2, §3, §4, §5, §6, §7, §8

[6] = target: T6, MMP-12 catalytic domain (Homo sapiens, UniProt P39900); assay: Assay for inhibitory activities on MMPs (fluorogenic peptide substrate): MMP-12; format: biochemical; conditions: substrate MOCAc-Pro-Leu-Gly-Leu-A2Pr(DNP)-Ala-Arg-NH2
T6 construct: catalytic domain(^100Phe˜^263Gly); His-tag; enterokinase digestion-site; made in house; host or cells: Escherichia coli
T6 sequence (P39900 100-263): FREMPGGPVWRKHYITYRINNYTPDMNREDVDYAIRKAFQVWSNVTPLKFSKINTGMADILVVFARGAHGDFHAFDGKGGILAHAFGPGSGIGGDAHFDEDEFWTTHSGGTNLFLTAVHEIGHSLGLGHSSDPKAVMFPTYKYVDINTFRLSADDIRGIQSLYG
Experimental: as §9, with “MMP-12,” for “MMP-13, mRNA was prepared from carcinoma cell SW1353 derived from human cartilage stimulate by IL-1, TNF and”, “domain(^100Phe˜^263Gly)” for “domain (^104Tyr˜^267Gly)”, “RT-PCR from Human Placenta Total RNA.” for “RT-PCR.”, “MMP-12” for “MMP-1.3”, “dialysis” for “dialyze”, “MMP-12.” for “MMP-13.”
as §1, §2, §3, §4, §5, §6, §7, §8

Row | Structure (SMILES) | IC50 [1] | IC50 [2] | IC50 [3] | IC50 [4] | IC50 [5] | melting point | IC50 [6]
1 | CC(C)[C@H](NS(=O)(=O)c1ccc(C#Cc2ccc3ccccc3c2)cc1)C(=O)O [Compound A-1] | > 10 µM | 0.77 µM | 300 nM | 400 nM | 570 nM | 171 to 173 °C | 7.6 nM
2 | O=C(O)CNS(=O)(=O)c1ccc(C#Cc2ccc3ccccc3c2)s1 [Compound B-9] | > 10 µM | 4.23 µM | 7180 nM | 1270 nM | > 10000 nM | – | 260 nM
3 | CSCC[C@@H](NS(=O)(=O)c1ccc(C#Cc2ccc3ccccc3c2)s1)C(=O)O [Compound B-10] | > 10 µM | 0.87 µM | 950 nM | 350 nM | 1000 nM | – | 8.8 nM
4 | CSCC[C@H](NS(=O)(=O)c1ccc(C#Cc2ccc3ccccc3c2)s1)C(=O)O [Compound B-11] | > 10 µM | 4.9 µM | 6140 nM | 1860 nM | 2890 nM | – | 110 nM
5 | O=C(O)C[C@@H](NS(=O)(=O)c1ccc(C#Cc2ccc3ccccc3c2)s1)C(=O)O [Compound B-12] | > 10 µM | 1.1 µM | 1400 nM | 1250 nM | 2600 nM | – | 40 nM
6 | O=C(O)[C@@H](Cc1ccccc1)NS(=O)(=O)c1ccc(C#Cc2cccc3ccccc23)s1 [Compound B-17] | > 10 µM | > 10 µM | > 10000 nM | > 10000 nM | > 10000 nM | – | 820 nM
7 | O=C(O)[C@@H](Cc1ccccc1)NS(=O)(=O)c1ccc(-n2nnc(-c3ccc4ccccc4c3)n2)cc1 [Compound C-1] | > 10 µM | > 10 µM | 450 nM | 140 nM | > 10000 nM | – | 55 nM
8 | O=C(O)[C@H](Cc1ccccc1)NS(=O)(=O)c1ccc(-n2nnc(-c3ccc4ccccc4c3)n2)cc1 [Compound C-2] | > 10 µM | > 10 µM | > 10000 nM | > 10000 nM | > 10000 nM | – | 140 nM
9 | O=C(Nc1ccc(S(=O)(=O)N[C@@H](Cc2ccccc2)C(=O)O)cc1)c1ccc2ccccc2c1 [Compound D-2] | > 10 µM | 6.56 µM | 2330 nM | 560 nM | 4510 nM | – | 150 nM
